Tested on: Hep3B cells (hepatocellular carcinoma cell line)
Test: In vitro MTS cell viability assay (NCI-60 methodology), Hep3B
Format: cell-based
Conditions: Homo sapiens, 48 h, Table 2, MTS, 2 days drug incubation, 50% reduction vs time zero, read-out: Hep3B LC50
Summary of the method: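 Hep3B cells given five 2-fold dilutions of compound for 2 days, with viability by MTS measured at time zero and at end. LC50 is the concentration giving a 50% fall in viable cells relative to the start of treatment, per NCI-60 formula.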

Compound | LC50
Cc1csc2c(-c3ccc(OC(F)(F)F)cc3)nc(NC(=O)c3ccc([N+](=O)[O-])s3)nc12 [Compound 2-8, N-(7-methyl-4-(4-(trifluoromethoxy)phenyl)thieno[3,2-d]pyrimidin-2-yl)-5-nitrothiophene-2-carboxamide] | 1.71 µM

Same assay, conditions: Homo sapiens, 48 h, Table 3, MTS, 2 days drug incubation, 50% reduction vs time zero, read-out: Hep3B LC50

Compound | LC50
Cc1nn(C)c2c(NC(=O)c3ccc([N+](=O)[O-])s3)nc(-c3ccc(C(F)(F)F)cc3)nc12 [Compound 3-1, N-(1,3-dimethyl-5-(4-(trifluoromethyl)phenyl)-1H-pyrazolo[4,3-d]pyrimidin-7-yl)-5-nitrothiophene-2-carboxamide] | 2.22 µM

Same assay, conditions: Homo sapiens, 48 h, Table 4, MTS, 2 days drug incubation, 50% reduction vs time zero, read-out: Hep3B LC50

Compound | LC50
O=C(Nc1nc(-c2ccc(F)cc2)nc2c(-c3ccccc3)csc12)c1ccc([N+](=O)[O-])s1 [Compound 4-15, N-(2-(4-fluorophenyl)-7-phenylthieno[3,2-d]pyrimidin-4-yl)-5-nitrothiophene-2-carboxamide] | 0.62 µM
Cc1csc2c(NC(=O)c3ccc([N+](=O)[O-])s3)nc(-c3ccc(N(C)C)cc3)nc12 [Compound 4-10, N-(2-(4-(dimethylamino)phenyl)-7-methylthieno[3,2-d]pyrimidin-4-yl)-5-nitrothiophene-2-carboxamide] | > 10 µM

Same assay, conditions: Homo sapiens, 48 h, Table 5, MTS, 2 days drug incubation, 50% reduction vs time zero, read-out: Hep3B LC50

Compound | LC50
O=C(Nc1nc(-c2ccc(Cl)c(Cl)c2)nc2c1cnn2-c1ccccc1)c1ccc([N+](=O)[O-])s1 [Compound 5-48, N-(6-(3,4-dichlorophenyl)-1-phenyl-1H-pyrazolo[3,4,d]pyrimidin-4-yl)-5-nitrothiophene-2-carboxamide] | 0.41 µM
C[C@@H]1CN(c2nc(NC(=O)c3ccc([N+](=O)[O-])s3)c3cnn(-c4ccccc4)c3n2)C[C@H](C)O1 [Compound 5-8, N-(6-((2S,6R)-2,6-dimethylmorpholino)-1-phenyl-1H-pyrazolo[3,4-d]pyrimidin-4-yl)-5-nitrothiophene-2-carboxamide] | 1.71 µM

Same assay, conditions: Homo sapiens, 48 h, Table 6, MTS, 2 days drug incubation, 50% reduction vs time zero, read-out: Hep3B LC50

Compound | LC50
O=C(Nc1nc(-c2ccc3c(c2)OCO3)nc2c1cnn2-c1ccc(Cl)cc1)c1ccc([N+](=O)[O-])s1 [Compound 6-50, N-(6-(benzo[d][1,3]dioxol-5-yl)-1(4-chlorophenyl)-1H-pyrazolo[3,4-d]pyrimidin-4-yl)-5-nitrothiophene-2-carboxamide] | 0.16 µM
CC(C)(C)c1ccc(-n2ncc3c(NC(=O)c4ccc([N+](=O)[O-])s4)nc(-c4cccc(F)c4)nc32)cc1 [Compound 6-80, N-(1-(4-(tert-butyl)phenyl)-6-(3-fluorophenyl)-1H-pyrazolo[3,4-d]pyrimidin-4-yl)-5-nitrothiophene-2-carboxamide] | 0.78 µM
O=C(Nc1nc(-c2ccc(C(F)(F)F)cc2)nc2c1cnn2-c1ccc(F)cc1)c1ccc([N+](=O)[O-])s1 [Compound 6-122, N-(1-(4-fluorophenyl)-6-(4-(trifluoromethyl)phenyl)-1H-pyrazolo[3,4-d]pyrimidin-4-yl)-5-nitrothiophene-2-carboxamide] | 0.28 µM
CC(C)(C)c1ccc(-n2ncc3c(NC(=O)c4ccc([N+](=O)[O-])s4)nc(-c4ccccc4F)nc32)cc1 [Compound 6-79, N-(1-(4-(tert-butyl)phenyl)-6-(2-fluorophenyl)-1H-pyrazolo[3,4-d]pyrimidin-4-yl)-5-nitrothiophene-2-carboxamide] | 0.69 µM
O=C(Nc1nc(-c2ccc(Cl)cc2)nc2c1cnn2-c1ccc(Cl)cc1)c1ccc([N+](=O)[O-])s1 [Compound 6-49, N-(1,6-bis(4-chlorophenyl)-1H-pyrazolo[3,4-d]pyrimidin-4-yl)-5-nitrothiophene-2-carboxamide] | 0.17 µM
O=C(Nc1nc(-c2ccc(Cl)cc2)nc2c1cnn2-c1cccc(Cl)c1)c1ccc([N+](=O)[O-])s1 [Compound 6-38, N-(1-(3-chlorophenyl)-6-(4-chlorophenyl)-1H-pyrazolo[3,4-d]pyrimidin-4-yl)-5-nitrothiophene-2-carboxamide] | 0.38 µM
CCCOc1ccc(-c2nc(NC(=O)c3ccc([N+](=O)[O-])s3)c3cnn(-c4ccc(OC)cc4)c3n2)cn1 [Compound 6-25] | 0.21 µM
O=C(Nc1nc(-c2ccc3c(c2)OCO3)nc2c1cnn2-c1cccc(F)c1)c1ccc([N+](=O)[O-])s1 [Compound 6-92, N-(6-(benzo[d][1,3]dioxol-5-yl)-1-(3-fluorophenyl)-1H-pyrazolo[3,4-d]pyrimidin-4-yl)-5-nitrothiophene-2-carboxamide] | 0.45 µM
O=C(Nc1nc(-c2cccc(Cl)c2)nc2c1cnn2-c1cccc(Cl)c1)c1ccc([N+](=O)[O-])s1 [Compound 6-37, N-(1,6-bis(3-chlorophenyl)-1H-pyrazolo[3,4-d]pyrimidin-4-yl)-5-nitrothiophene-2-carboxamide] | 0.23 µM
CCCOC[C@@H]1CCCN1c1nc(NC(=O)c2ccc([N+](=O)[O-])s2)c2cnn(-c3ccc(F)cc3)c2n1 [Compound 6-105, (S)—N-(1-(4-fluorophenyl)-6-(2-(propoxymethyl)pyrrolidin-1-yl)-1H-pyrazolo[3,4-d]pyrimidin-4-yl)-5-nitrothiophene-2-carboxamide] | 0.42 µM
O=C(Nc1nc(N2CCCCC2)nc2c1cnn2-c1ccc(Cl)cc1)c1ccc([N+](=O)[O-])s1 [Compound 6-47, N-(1-(4-chlorophenyl)-6-(piperidin-1-yl)-1H-pyrazolo[3,4,d]pyrimidin-4-yl)-5-nitrothiophene-2-carboxamide] | 0.71 µM
CC(C)(C)c1ccc(-n2ncc3c(NC(=O)c4ccc([N+](=O)[O-])s4)nc(OCC(F)(F)C(F)F)nc32)cc1 [Compound 6-59, N-(1-(4-(tert-butyl)phenyl)-6-(2,2,3,3-tetrafluoropropoxy)-1H-pyrazolo[3,4-d]pyrimidin-4-yl)-5-nitrothiophene-2-carboxamide] | 0.5 µM
CCOCCOc1ccc(-c2nc(NC(=O)c3ccc([N+](=O)[O-])s3)c3cnn(-c4cccc(F)c4)c3n2)cn1 [Compound 6-95, N-(6-(6-(2-ethoxyethoxy)pyridin-3-yl)-1-(3-fluorophenyl)-1H-pyrazolo[3,4-d]pyrimidin-4-yl)-5-nitrothiophene-2-carboxamide] | 0.29 µM

Same assay, conditions: Homo sapiens, 48 h, Table 7, MTS, 2 days drug incubation, 50% reduction vs time zero, read-out: Hep3B LC50

Compound | LC50
O=C(Nc1nc(-c2ccc(F)cc2F)nc2c1cnn2-c1ccc(C(F)(F)F)cn1)c1ccc([N+](=O)[O-])s1 [Compound 7-6] | 0.15 µM
O=C(Nc1nc(-c2ccc(F)nc2)nc2c1cnn2-c1ccc(C(F)(F)F)cn1)c1ccc([N+](=O)[O-])s1 [Compound 7-2, N-(6-(6-fluoropyridin-3-yl)-1-(5-(trifluoromethyl)pyridin-2-yl)-1H-pyrazolo[3,4,d]pyrimidin-4-yl)-5-nitrothiophene-2-carboxamide] | 0.15 µM
O=C(Nc1nc(N2CCC[C@H]2CO)nc2c1cnn2-c1ccc(Cl)c(Cl)c1)c1ccc([N+](=O)[O-])s1 [Compound 7-11, (S)—N-(1-(3,4-dichlorophenyl)-6-(2-(hydroxymethyl)pyrrolidin-1-yl)-1H-pyrazolo[3,4-d]pyrimidin-4-yl)-5-nitrothiophene-2-carboxamide] | 0.51 µM
COc1ccc(-c2nc(NC(=O)c3ccc([N+](=O)[O-])s3)c3cnn(Cc4cccc(F)c4)c3n2)cn1 [Compound 7-18] | > 1.25 µM
O=C(Nc1nc(-c2ccc(Cl)nc2)nc2c1cnn2Cc1ccccc1)c1ccc([N+](=O)[O-])s1 [Compound 7-15, N-(1-benzyl-6-(6-chloropyridin-3-yl)-1H-pyrazolo[3,4-d]pyrimidin-4-yl)-5-nitrothiophene-2-carboxamide] | 1.2 µM

Same assay, conditions: Homo sapiens, 48 h, Table 8, MTS, 2 days drug incubation, 50% reduction vs time zero, read-out: Hep3B LC50

Compound | LC50
CCOC(=O)N1CC[C@@H](n2ncc3c(NC(=O)c4ccc([N+](=O)[O-])s4)nc(-c4ccc(F)nc4)nc32)C1 [Compound 8-6, ethyl (R)-3-(6-(6-fluoropyridin-3-yl)-4-(5-nitrothiophene-2-carboxamido)-1H-pyrazolo[3,4-d]pyrimidin-1-yl)pyrrolidine-1-carboxylate] | > 2 µM

Same assay, conditions: Homo sapiens, 48 h, Table 9, MTS, 2 days drug incubation, 50% reduction vs time zero, read-out: Hep3B LC50

Compound | LC50
C=CC(=O)N1CCC(n2ncc3c(NC(=O)c4ccc([N+](=O)[O-])s4)nc(-c4ccc(F)nc4)nc32)CC1 [Compound 9-6] | 1.25 µM
CCOCCOCCOC(=O)N1CCC(n2ncc3c(NC(=O)c4ccc([N+](=O)[O-])s4)nc(-c4cccs4)nc32)CC1 [Compound 9-10, 2-(2-ethoxyethoxy)ethyl 4-(4-(5-nitrothiophene-2-carboxamido)-6-(thiophen-2-yl)-1H-pyrazolo[3,4-d]pyrimidin-1-yl)piperidine-1-carboxylate] | > 3 µM

Same assay, conditions: Homo sapiens, 48 h, Table 10, MTS, 2 days drug incubation, 50% reduction vs time zero, read-out: Hep3B LC50

Compound | LC50
CS(=O)(=O)c1ccc(-c2nc(NC(=O)c3ccc([N+](=O)[O-])s3)c3cnn(C4CCCCC4)c3n2)cc1 [Compound 10-34, N-(1-cyclohexyl-6-(4-(methylsulfonyl)phenyl)-1H-pyrazolo[3,4-d]pyrimidin-4-yl)-5-nitrothiophene-2-carboxamide] | 0.93 µM
O=C(Nc1nc(-c2ccc(Cl)c(Cl)c2)nc2c1cnn2C1CCCCC1)c1ccc([N+](=O)[O-])s1 [Compound 10-43, N-(1-cyclohexyl-6-(3,4-dichlorophenyl)-1H-pyrazolo[3,4,d]pyrimidin-4-yl)-5-nitrothiophene-2-carboxamide] | 0.77 µM
O=C(Nc1nc(-c2ccc3c(c2)OCCO3)nc2c1cnn2C1CCCCC1)c1ccc([N+](=O)[O-])s1 [Compound 10-37, N-(1-cyclohexyl-6-(2,3-dihydrobenzo[b][1.4]dioxin-6-yl)-1H-pyrazolo[3,4-d]pyrimidin-4-yl)-5-nitrothiophene-2-carboxamide] | 1.94 µM
